Assays:
[1] = target: TYK2 (Homo sapiens (Human), UniProt P29597); assay: Tyk2 activity inhibition assay (radioactive kinase assay / Caliper assay); assay type: biochemical
In short: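 Two formats were used. Caliper off-chip mobility shift read phosphorylated peptide 30 (3 uM) after 25 min at 28° C with 9.75 nM TYK2 and ATP at 16 uM or 1 mM. Radioactive assay: 10 μM 33P-ATP, 20 μM peptide, 120 min room temp, P81 filter counting.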

[2] = target: JAK2 (Homo sapiens (Human), UniProt O60674); assay: JAK2 activity inhibition assay (radioactive kinase assay / Caliper assay); assay type: biochemical; details: read-out: JAK2 Ki
In short: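 Reaction ran 25 min at 28° C after adding peptide/ATP mix (10 mM MgCl2) to compound and enzyme in HEPES pH 7.5 buffer with Brij-35, Triton and EGTA. EDTA stop, then microfluidic off-chip separation quantified phosphorylated peptide.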

Sequence of TYK2 (P29597 whole entry): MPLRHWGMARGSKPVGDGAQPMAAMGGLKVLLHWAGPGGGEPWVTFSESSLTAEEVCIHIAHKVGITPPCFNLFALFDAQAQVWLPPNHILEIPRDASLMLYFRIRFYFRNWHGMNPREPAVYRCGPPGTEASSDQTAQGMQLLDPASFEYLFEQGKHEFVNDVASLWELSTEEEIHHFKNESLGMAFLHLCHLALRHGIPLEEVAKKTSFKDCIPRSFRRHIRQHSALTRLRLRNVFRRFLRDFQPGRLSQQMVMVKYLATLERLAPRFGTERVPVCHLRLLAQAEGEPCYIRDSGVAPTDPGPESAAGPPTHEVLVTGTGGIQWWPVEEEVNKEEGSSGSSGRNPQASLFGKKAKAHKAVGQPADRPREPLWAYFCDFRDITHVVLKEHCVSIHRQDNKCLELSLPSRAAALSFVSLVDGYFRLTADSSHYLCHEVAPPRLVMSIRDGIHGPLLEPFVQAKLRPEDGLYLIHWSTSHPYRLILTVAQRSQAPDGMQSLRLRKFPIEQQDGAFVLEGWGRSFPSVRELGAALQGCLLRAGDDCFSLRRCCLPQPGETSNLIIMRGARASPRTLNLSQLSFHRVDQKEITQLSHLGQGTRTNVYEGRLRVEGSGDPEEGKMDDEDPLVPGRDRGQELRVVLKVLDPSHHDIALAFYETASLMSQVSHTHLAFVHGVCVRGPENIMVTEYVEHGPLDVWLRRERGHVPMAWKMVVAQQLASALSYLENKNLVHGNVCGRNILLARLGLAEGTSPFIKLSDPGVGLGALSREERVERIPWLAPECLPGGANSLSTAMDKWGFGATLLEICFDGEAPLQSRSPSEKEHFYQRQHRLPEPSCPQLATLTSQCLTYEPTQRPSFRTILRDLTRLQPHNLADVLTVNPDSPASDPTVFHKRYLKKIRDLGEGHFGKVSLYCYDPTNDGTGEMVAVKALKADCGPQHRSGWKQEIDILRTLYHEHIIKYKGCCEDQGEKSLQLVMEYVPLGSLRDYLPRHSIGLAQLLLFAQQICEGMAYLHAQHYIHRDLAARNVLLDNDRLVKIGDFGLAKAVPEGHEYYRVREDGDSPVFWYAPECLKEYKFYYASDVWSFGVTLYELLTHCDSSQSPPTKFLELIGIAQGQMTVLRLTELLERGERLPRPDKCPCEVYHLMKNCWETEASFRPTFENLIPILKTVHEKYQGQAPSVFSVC
Sequence of JAK2 (O60674 whole entry): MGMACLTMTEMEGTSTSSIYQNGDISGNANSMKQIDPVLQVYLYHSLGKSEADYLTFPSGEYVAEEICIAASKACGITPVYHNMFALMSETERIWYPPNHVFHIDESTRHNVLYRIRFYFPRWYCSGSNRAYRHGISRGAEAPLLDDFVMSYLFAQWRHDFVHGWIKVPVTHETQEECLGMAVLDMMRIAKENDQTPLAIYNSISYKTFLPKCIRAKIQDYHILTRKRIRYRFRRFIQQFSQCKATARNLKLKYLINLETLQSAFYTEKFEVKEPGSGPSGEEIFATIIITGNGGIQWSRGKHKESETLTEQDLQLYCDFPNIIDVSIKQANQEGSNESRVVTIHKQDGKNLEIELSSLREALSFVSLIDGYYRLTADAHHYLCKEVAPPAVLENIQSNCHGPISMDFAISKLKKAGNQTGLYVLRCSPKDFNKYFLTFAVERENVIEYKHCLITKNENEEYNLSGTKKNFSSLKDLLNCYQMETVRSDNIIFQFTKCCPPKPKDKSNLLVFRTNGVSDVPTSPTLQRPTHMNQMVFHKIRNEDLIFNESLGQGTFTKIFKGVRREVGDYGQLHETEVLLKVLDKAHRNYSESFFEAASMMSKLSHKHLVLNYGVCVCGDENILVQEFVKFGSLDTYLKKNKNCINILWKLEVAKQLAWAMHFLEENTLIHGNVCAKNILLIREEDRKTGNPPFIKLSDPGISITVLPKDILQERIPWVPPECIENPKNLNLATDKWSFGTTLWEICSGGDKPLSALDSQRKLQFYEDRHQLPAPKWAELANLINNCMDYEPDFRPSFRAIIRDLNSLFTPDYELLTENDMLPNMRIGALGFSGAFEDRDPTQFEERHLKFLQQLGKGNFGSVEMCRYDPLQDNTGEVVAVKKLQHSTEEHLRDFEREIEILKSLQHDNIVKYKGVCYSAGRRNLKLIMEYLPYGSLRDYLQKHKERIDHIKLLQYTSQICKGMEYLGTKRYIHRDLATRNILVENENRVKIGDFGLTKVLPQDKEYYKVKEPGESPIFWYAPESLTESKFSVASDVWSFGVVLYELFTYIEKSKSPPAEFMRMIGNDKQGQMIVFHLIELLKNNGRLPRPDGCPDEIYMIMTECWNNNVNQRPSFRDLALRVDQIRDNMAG

Row | Ki [1] | Ki [2] | SMILES
1 | 100 to 1000 nM | > 1000 nM | O=C(O)Cc1ccc(Nc2nc(-c3c(F)cccc3F)nc3c2C(=O)NC3)cn1 [Compound I-17]
2 | < 10 nM | 100 to 1000 nM | C[C@H](O)CNC(=O)Cc1ccc(Nc2nc(-c3c(F)cccc3F)nc3c2C(=O)NC3)cc1 [Compound I-75, (S)-2-(4-((2-(2,6-difluorophenyl)-5-oxo-6,7-dihydro-5H-pyrrolo[3,4-d]pyrimidin-4-yl)amino)phenyl)-N-(2-hydroxy-propyl)acetamide]
3 | < 10 nM | 100 to 1000 nM | O=C(O)Cc1ccc(Nc2nc(-c3c(F)cccc3Cl)nc3c2C(=O)NC3)cc1 [Compound I-10, 2-(4-((2-(2-chloro-6-fluorophenyl)-5-oxo-6,7-dihydro-5H-pyrrolo[3,4-d]pyrimidin-4-yl)amino)phenyl)acetic Acid]
4 | < 10 nM | 100 to 1000 nM | O=C(O)c1ccc(Nc2nc(-c3c(F)cccc3F)nc3c2C(=O)NC3)cc1 [Compound I-156, 4-((2-(2,6-difluorophenyl)-5-oxo-6,7-dihydro-5H-pyrrolo[3,4-d]pyrimidin-4-yl)amino)benzoicacid]

The remaining lines, values behind:

Row | SMILES | Ki [1] | Ki [2]
5 | O=C(NC1CCOCC1)c1ccc(Nc2cc(-c3c(F)cccc3F)nc3c2C(=O)NC3)nc1 [Compound I-139, 6-((2-(2,6-difluorophenyl)-5-oxo-6,7-dihydro-5H-pyrrolo[3,4-b]pyridin-4-yl)amino)-N-(tetrahydro-2H-pyran-4-yl)nicotinamide] | < 10 nM | 10 to 100 nM
6 | CC1(c2ccc(Nc3nc(-c4c(F)cccc4F)nc4c3C(=O)NC4)cc2)CCN(C2CCOCC2)C1=O (stereo not drawn) [Compound I-124, 2-(2,6-difluorophenyl)-4-((4-(3-methyl-2-oxo-1-(tetrahydro-2H-pyran-4-yl)pyrrolidin-3-yl)phenyl)amino)-6,7-dihydro-5H-pyrrolo[3,4-d]pyrimidin-5-one] | < 10 nM | 10 to 100 nM
7 | COC(=O)Cc1ccc(Nc2nc(-c3c(F)cccc3F)nc3c2C(=O)NC3)cn1 [Compound I-18, methyl 2-(5-((2-(2,6-difluorophenyl)-5-oxo-6,7-dihydro-5H-pyrrolo[3,4-d]pyrimidin-4-yl)amino)pyridin-2-yl)acetate] | 100 to 1000 nM | > 1000 nM
8 | O=C(Cc1ccc(Nc2nc(-c3c(F)cccc3F)nc3c2C(=O)NC3)cc1)NCC1CNC1 [Compound I-72, N-(azetidin-3-ylmethyl)-2-(4-((2-(2,6-difluoro-phenyl)-5-oxo-6,7-dihydro-5H-pyrrolo[3,4-d]pyrimidin-4-yl)amino)-phenyl)acetamide] | < 10 nM | 100 to 1000 nM
9 | O=C1NCc2nc(-c3c(F)cccc3F)nc(Nc3ccc(CC(=O)N4CCOC[C@@H]4C(=O)O)cc3)c21 [Compound I-194, (R)-4-(2-(4-((2-(2,6-difluorophenyl)-5-oxo-6,7-dihydro-5H-pyrrolo[3,4-d]pyrimidin-4-yl)amino)phenyl)acetyl)morpholine-3-carboxylic Acid] | 10 to 100 nM | 100 to 1000 nM
10 | CC1(C)CC(c2ccc(Nc3nc(-c4c(F)cccc4F)nc4c3C(=O)NC4)cc2)C(=O)N1 (stereo not drawn) [Compound I-213, 2-(2,6-difluorophenyl)-4-((4-(5,5-dimethyl-2-oxopyrrolidin-3-yl)phenyl)amino)-6,7-dihydro-5H-pyrrolo[3,4-d]pyrimidin-5-one] | < 10 nM | 100 to 1000 nM
11 | COCCC1(c2ccc(Nc3nc(-c4c(F)cccc4F)nc4c3C(=O)NC4)cc2)CCNC1=O (stereo not drawn) [Compound I-116, 2-(2,6-difluorophenyl)-4-((4-(3-(2-methoxyethyl)-2-oxopyrrolidin-3-yl)phenyl)amino)-6,7-dihydro-5H-pyrrolo[3,4-d]pyrimidin-5-one] | < 10 nM | 10 to 100 nM
12 | O=C1NCc2nc(-c3c(F)cccc3F)cc(Nc3ccc([C@H]4CCNC4=O)cn3)c21 [Compound I-91, (R)-2-(2,6-difluorophenyl)-4-((5-(2-oxopyrrolidin-3-yl)pyridin-2-yl)amino)-6,7-dihydro-5H-pyrrolo[3,4-b]pyridin-5-one] | < 10 nM | 10 to 100 nM

Reference: patent US10196390B2, “TYK2 inhibitors and uses thereof” (Nimbus Lakshmi, Inc., priority 2014, dated 2019)
